Test results published in patent US20200230084A1 (Strongbridge Dublin Limited, priority 2019, published 2020).
“Also recorded” adds a separate entry of the source.

Legend:
[1] = test system: patients with primary periodic paralysis; assay: Phase III double-blind plus open-label extension study: cognition-related adverse events during dichlorphenamide treatment; assay type: in vivo, human
Experimental: Data were analyzed from a 9-week Phase III, randomized, double-blind, placebo-controlled phase and a 52-week open-label extension phase. The trial included two substudies: one in adults with hyperkalemic periodic paralysis and one in adults with hypokalemic periodic paralysis. The substudy data were pooled. Medical Dictionary for Regulatory Activities high-level group terms of deliria (including confusion) and mental impairment disorders were pooled for cognition-related events. Kaplan-Meier methods were used to estimate the percentages of patients with no occurrence of the adverse event over time.
Dose reductions were allowed for intolerable adverse events. […] Adverse events reported during dichlorphenamide exposure were summarized by double-blind treatment/open label treatment (placebo/dichlorphenamide or dichlorphenamide/dichlorphenamide) group.
The age range was 19 to 76 years.

[2] = cited from earlier work
[3] = cited from earlier work; remark: listed apart in the source
[4] = n = 63, cognition-related adverse events
[5] = n = 63, considered by investigators at least possibly related to study drug
[6] = n = 63, listed as dichlorphenamide

Structure (SMILES): NS(=O)(=O)c1cc(Cl)c(Cl)c(S(N)(=O)=O)c1 [Dichlorphenamide, 4,5-dichloro-1,3-benzenedisulfonamide]
- Intensity of cognition-related adverse events (in words) ([1]; 61-week study): Most cognition-related adverse events were mild in intensity; also recorded: mild or moderate in intensity
- Discontinuation due to cognition-related adverse event, patients % ([1]; n = 63): (6.3) %
- Discontinuation due to cognition-related adverse event, patients n ([1]; n = 63): 4 patients
- Resolution of last cognition-related adverse event: Resolved, patients % ([1]; n = 63): (17.5) %
- Resolution of last cognition-related adverse event: Resolved, patients n ([1]; n = 63): 11 patients
- Resolution of last cognition-related adverse event: Under treatment/observation, patients % ([1]; n = 63): (7.9) %
- Resolution of last cognition-related adverse event: Under treatment/observation, patients n ([1]; n = 63): 5 patients
- Any cognition-related adverse event, patients % ([1]; n = 63, 61-week study duration): (25.4) %
- Any cognition-related adverse event, patients n ([1]; n = 63, 61-week study duration, pooled hyper/hypokalemic periodic paralysis): 16 patients
- Any cognition-related adverse event, patients % ([1]; n = 63, 61-week study duration, listed as dichlorphenamide): 25.4%
- Adverse event intensity: Mild, patients % [1, 4]: (14.3) %
- Adverse event intensity: Mild, patients n [1, 4]: 9 patients
- Adverse event intensity: Moderate, patients % [1, 4]: (7.9) %
- Adverse event intensity: Moderate, patients n [1, 4]: 5 patients
- Adverse event intensity: Severe, patients % [1, 4]: (3.2) %
- Adverse event intensity: Severe, patients n [1, 4]: 2 patients
- Any drug-related cognition-related adverse event, patients % [1, 5]: (25.4) %
- Any drug-related cognition-related adverse event, patients n [1, 5]: 16 patients
- Discontinuation due to cognition-related adverse event, patients % [1, 6]: 6.3%
- Discontinuation due to cognition-related adverse event, patients n [1, 6]: Four
- Patients with cognition-related adverse event who had the dose of dichlorphenamide reduced, % ([1]; of 16 patients with cognition-related adverse event): 37.5%
- Outcome of cognition-related adverse event after dose reduction ([1]; six patients with reduced dose): resolved in all six cases; also recorded: Reduced doses frequently resolved these adverse events
- Onset of cognition-related adverse events ([1]; time from start of dichlorphenamide treatment): during the first four weeks; also recorded: within the first month of therapy
- Stability of dilute alkaline solutions ([2]; room temperature): stable
- Storage stability ([2]; storage): at least 36 months
- Solubility in dilute solutions of sodium carbonate and sodium hydroxide ([3]; dilute sodium carbonate and sodium hydroxide solutions): soluble
- Solubility in water ([3]; water): very slightly soluble
